Assay results: patent publication US10617680B2 (CELGENE QUANTICEL RESEARCH, INC., priority 2017, dated 2020)

Target: CBP (Homo sapiens (Human), UniProt Q92793)
Assay: In vitro CBP inhibition (AlphaScreen, biotinylated H4-tetraacetyl peptide)
Format: binding
Settings: not given
Experimental: The CBP-inhibitory activity of the compounds described herein was determined by calculating the IC50. More specifically, CBP inhibitor activity was assayed as follows: CBP was cloned and expressed in E. coli as His-tag protein and purified by Nickel affinity and gel-filtration chromatography. […] CBP binding and inhibition is assessed by monitoring the interaction of biotinylated H4-tetraacetyl peptide (AnaSpec, H4K5/8/12/16(Ac), biotin-labeled) with the target using the AlphaScreen technology (Perkin Elmer). In a 384-well ProxiPlate CBP (50 nM final) was combined with peptide (20 nM final) in 50 mM HEPES (pH 7.3), 10 mM NaCl, 0.25 mM TCEP, 0.1% (w/v) BSA, and 0.005% (w/v) Brij-35 either in the presence of DMSO (final 0.4% DMSO) or compound dilution series in DMSO. After 20 min incubation at room temp, Alpha-streptavidin donor beads and Nickel Chelate acceptor beads were added to a final concentration of 5 μg/mL.
The ability of the compounds disclosed herein to inhibit CBP activity was quantified and the respective IC50 value determined.

CBP, sequence (Q92793 1081-1197): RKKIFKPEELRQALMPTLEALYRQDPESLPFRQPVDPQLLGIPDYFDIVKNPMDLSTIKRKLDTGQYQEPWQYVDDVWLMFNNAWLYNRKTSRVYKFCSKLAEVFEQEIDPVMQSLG

SMILES | IC50
Cc1ccccc1-c1cc(=O)n(C)cc1-c1cnn(Cc2ccccc2)c1 [Example 106, 5-(1-benzyl-1H-pyrazol-4-yl)-1-methyl-4-o-tolyl-1H-pyridin-2-one] | 500 to 5000 nM
Cn1cc(-c2cnn(Cc3ccccc3)c2)c(-c2ccccc2Cl)cc1=O [Example 123, 5-(1-benzyl-1H-pyrazol-4-yl)-4-(2-chlorophenyl)-1-methyl-pyridin-2(1H)-one] | 500 to 5000 nM

Same assay, conditions: AlphaScreen, Table 29; read-out: CBP IC50

SMILES | IC50
CN(C)C(=O)c1ccn(-c2cc(=O)n(C)cc2-c2cnn(Cc3ccccc3)c2)c1 [Example 78, 1-(5-(1-benzyl-1H-pyrazol-4-yl)-1-methyl-2-oxo-1,2-dihydropyridin-4-yl)-N,N-dimethyl-1H-pyrrole-3carboxamide] | < 500 nM
Cn1cc(-c2cnn(Cc3ccccc3)c2)c(-n2ccc(C(=O)O)c2)cc1=O [Example 79, 1-(5-(1-benzyl-1H-pyrazol-4-yl)-1-methyl-2-oxo-1,2-dihydropyridin-4-yl)-1H-pyrrole-3-carboxylic acid] | < 500 nM
Cn1cc(-c2cnn(Cc3ccccc3)c2)c(-n2ccc(C#N)c2)cc1=O [Example 80, 1-(5-(1-benzyl-1H-pyrazol-4-yl)-1-methyl-2-oxo-1,2-dihydropyridin-4-yl)-1H-pyrrole-3-carbonitrile] | < 500 nM
CCNC(=O)c1ccn(-c2cc(=O)n(C)cc2-c2cnn(Cc3ccccc3)c2)c1 [Example 81, 1-(5-(1-benzyl-1H-pyrazol-4-yl)-1-methyl-2-oxo-1,2-dihydro-pyridin-4-yl)-N-ethyl-1H-pyrrole-3-carboxamide] | < 500 nM
CC(C)NC(=O)c1ccn(-c2cc(=O)n(C)cc2-c2cnn(Cc3ccccc3)c2)c1 [Example 82, 1-(5-(1-benzyl-1H-pyrazol-4-yl)-1-methyl-2-oxo-1,2-dihydropyridin-4-yl)-N-isopropyl-1H-pyrrole-3-carboxamide] | < 500 nM
Cn1cc(-c2cn(C)c(=O)cc2-n2cccc2)cn1 [Example 83, 1-methyl-5-(1-methyl-1H-pyrazol-4-yl)-4-(1H-prrol-1-yl) pyridin-2(1H)-one] | < 500 nM
Cn1cc(-c2cn(C)c(=O)cc2-n2ccc(C(=O)O)c2)cn1 [Example 84, 1-(1-methyl-5-(1-methyl-1H-pyrazol-4-yl)-2-oxo-1,2-dihydro-pyridin-4-yl)-1H-pyrrole-3-carboxylic acid] | < 500 nM
Cn1cc(-c2cnn(Cc3ccccc3)c2)c(-n2ccc(C(N)=O)c2)cc1=O [Example 85, 1-(5-(1-benzyl-1H-pyrazol-4-yl)-1-methyl-2-oxo-1,2-dihydropyridin-4-yl)-1H-pyrrole-3-carboxamide] | < 500 nM
Cn1cc(-c2cnn(CC3CC3)c2)c(-n2ccc(C(=O)O)c2)cc1=O [Example 86, 1-(5-(1-(cyclopropylmethyl)-1H-pyrazol-4-yl)-1-methyl-2-oxo-1,2-dihydropyridin-4-yl)-1H-pyrrolc-3-carboxylic acid] | < 500 nM
Cn1cc(-c2cnn(Cc3ccccc3)c2)c(N2CCCC2)cc1=O [Example 87, 5-(1-benzyl-1H-pyrazol-4-yl)-1-methyl-4-pyrrolidin-1-yl-1H-pyridin-2-one] | < 500 nM
Cn1cc(-c2cnn(Cc3ccccc3)c2)c(OCC(F)(F)F)cc1=O [Example 91, 5-(1-benzyl-1H-pyrazol-4-yl)-1-methyl-4-(2,2,2-trifluoro-ethoxy)pyridin-2(1H)-one] | < 500 nM
Cn1cc(-c2cnn(Cc3ccccc3)c2)c(OCCC(F)(F)F)cc1=O [Example 92, 5-(1-benzyl-1H-pyrazol-4-yl)-1-methyl-4-(3,3,3-trifluoro-propoxy)pyridin-2(1H)-one] | < 500 nM
CNC(=O)[C@H]1CCN(c2cc(=O)n(C)cc2-c2cnn(Cc3ccccc3)c2)C1 [Example 93, 1-[5-(1-benzyl-1H-pyrazol-4-yl)-1-methyl-2-oxo-1,2-dihydro-pyridin-4-yl]-pyrrolidine-3-methylacetamide] | < 500 nM
CCOc1cc(=O)n(C)cc1-c1cnn2c1CCC2 [Example 95, 5-(5,6-dihydro-4H-pyrrolo[1,2-b]-pyrazol-3-yl)-4-ethoxy-1-methylpyridin-2(1H)-one] | < 500 nM
CCOc1cc(=O)n(C)cc1-c1cnn(-c2ccccc2)c1 [Example 96, 4-ethoxy-1-methyl-5-(1-phenyl-1H-pyrazol-4-yl) pyridin-2(1H)-one] | < 500 nM
CCOc1cc(=O)n(C)cc1-c1cnn(-c2ccccc2Cl)c1 [Example 97, 5-(1-(2-chloro-phenyl)-1H-pyrazol-4-yl)-4-ethoxy-1-methyl-pyridin-2(1H)-one] | < 500 nM
CCOc1cc(=O)n(C)cc1-c1cnn(-c2c(Cl)cccc2Cl)c1 [Example 98, 5-(1-(2,6-dichlorophenyl)-1H-pyrazol-4-yl)-4-ethoxy-1-methyl-pyridin-2(1H)-one] | < 500 nM
CNNc1cc(=O)n(C)cc1-c1cnn(Cc2ccccc2)c1 [Example 99, 5-(1-benzyl-1H-pyrazol-4-yl)-1-methyl-4-(2-methyl-hydrazinyl)-pyridin-2(1H)-one] | 500 to 5000 nM
CCOc1cc(=O)n(C)cc1-c1cnn(C(C)c2ccc(-c3cnn(C)c3)cc2)c1 (stereo not shown) [Example 100, 4-ethoxy-1-methyl-5-(1-{1-[4-(1-methyl-1H-pyrazol-4-yl)-phenyl]-ethyl}-1H-pyrazol-4-yl)-1H-pyridin-2-one] | < 500 nM

SMILES | IC50
CCOc1cc(=O)n(C)cc1-c1cnn(Cc2ccc(C(C)C)cc2)c1 [Example 101, 4-ethoxy-5-[1-(4-isopropyl-benzyl)-1H-pyrazol-4-yl]-1-methyl-1H-pyridin-2-one] | < 500 nM
CCOc1cc(=O)n(C)cc1-c1cnn(Cc2ccc(-c3cnn(C)c3)cc2)c1 [Example 102, 4-ethoxy-1-methyl-5-{1-[4-(1-methyl-1H-pyrazol-4-yl)-benzyl]-1H-pyrazol-4-yl}-1H-pyridin-2-one] | < 500 nM
CCOc1cc(=O)n(C)cc1-c1cnn(Cc2ccc(-c3cn[nH]c3)cc2)c1 [Example 103, 4-ethoxy-1-methyl-5-{1-[4-(1H-pyrazol-4-yl)-benzyl]-1H-pyrazol-4-yl}-1H-pyridin-2-one] | < 500 nM
CCOc1cc(=O)n(C)cc1-c1cnn(Cc2cccc(Br)c2)c1 [Example 105, 5-(1-(3-bromo-benzyl)-1H-pyrazol-4-yl)-4-ethoxy-1-methyl-pyridin-2(1H)-one] | < 500 nM
Cn1cc(-c2cn(C)c(=O)cc2-c2ccccc2)cn1 [Example 107, 1-methyl-5-(1-methyl-1H-pyrazol-4-yl)-4-phenylpyridin-2(1H)-one] | < 500 nM
Cn1cc(-c2cc(=O)n(C)cc2-c2cnn(Cc3ccccc3)c2)cn1 [Example 108, 5-(1-benzyl-1H-pyrazol-4-yl)-1-methyl-4-(1-methyl-1H-pyrazol-4-yl)pyridin-2(1H)-one] | < 500 nM
Cn1ccc(-c2cc(=O)n(C)cc2-c2cnn(Cc3ccccc3)c2)n1 [Example 109, 5-(1-benzyl-1H-pyrazol-4-yl)-1-methyl-4-(1-methyl-1H-pyrazol-3-yl)pyridin-2(1H)-one] | 500 to 5000 nM
Cn1nccc1-c1cc(=O)n(C)cc1-c1cnn(Cc2ccccc2)c1 [Example 110, 5-(1-benzyl-1H-pyrazol-4-yl)-1-methyl-4-(1-methyl-1H-pyrazol-5-yl)pyridin-2(1H)-one] | 500 to 5000 nM
Cc1cccc(-c2cc(=O)n(C)cc2-c2cnn(Cc3ccccc3)c2)c1 [Example 111, 5-(1-benzyl-1H-pyrazol-4-yl)-1-methyl-4-(m-tolyl)-pyridin-2(1H)-one] | < 500 nM
Cc1ccc(-c2cc(=O)n(C)cc2-c2cnn(Cc3ccccc3)c2)cc1 [Example 112, 5-(1-benzyl-1H-pyrazol-4-yl)-1-methyl-4-(p-tolyl)pyridin-2(1H)-one] | < 500 nM
COc1cccc(-c2cc(=O)n(C)cc2-c2cnn(Cc3ccccc3)c2)c1 [Example 113, 5-(1-benzyl-1H-pyrazol-4-yl)-4-(3-methoxyphenyl)-1-methyl-pyridin-2(1H)-one] | < 500 nM
Cn1cc(-c2cnn(Cc3ccccc3)c2)c(-c2ccn[nH]2)cc1=O [Example 114, 5-(1-benzyl-1H-pyrazol-4-yl)-1-methyl-4-(1H-pyrazol-5-yl) pyridin-2(1H)-one] | < 500 nM
Cn1cc(-c2cnn(Cc3ccccc3)c2)c(-c2cccs2)cc1=O [Example 116, 5-(1-benzyl-1H-pyrazol-4-yl)-1-methyl-4-(thiophen-2-yl) pyridin-2(1H)-one] | < 500 nM
Cn1cc(-c2cnn(Cc3ccccc3)c2)c(-c2ccsc2)cc1=O [Example 117, 5-(1-benzyl-1H-pyrazol-4-yl)-1-methyl-4-(thiophen-3-yl) pyridin-2(1H)-one] | < 500 nM
COc1ccc(-c2cc(=O)n(C)cc2-c2cnn(Cc3ccccc3)c2)cc1 [Example 120, 5-(1-benzyl-1H-pyrazol-4-yl)-4-(4-methoxyphenyl)-1-methyl-pyridin-2(1H)-one] | < 500 nM
Cn1cc(-c2cnn(Cc3ccccc3)c2)c(-c2cccnc2)cc1=O [Example 122, 5′-(1-benzyl-1H-pyrazol-4-yl)-1′-methyl-[3,4-bipyridin]-2′(1′H)-one] | < 500 nM
Cn1cc(-c2cnn(Cc3ccccc3)c2)c(-c2ccncc2)cc1=O [Example 124, 5-(1-benzyl-1H-pyrazol-4-yl)-1-methyl-[4,4′-bipyridin]-2(1H)-one] | < 500 nM
Cn1cc(-c2cnn(C3CCCCC3)c2)c(-c2ccccc2)cc1=O [Example 125, 5-(1-cyclohexyl-1H-pyrazol-4-yl)-1-methyl-4-phenylpyridin-2(1H)-one] | < 500 nM
Cn1cc(-c2cnn(C3CCOCC3)c2)c(-c2ccccc2)cc1=O [Example 126, 1-methyl-4-phenyl-5-(1-(tetrahydro-2H-pyran-4-yl)-1H-pyrazol-4-yl) pyridin-2(1H)-one] | < 500 nM
